According to patent publication US7879857B2, “6-substituted 2-quinolinones and 2-quinoxalinones as poly (adp-ribose) polymerase inhibitors” (Janssen Pharmaceutica NV, priority 2003, dated 2011):

Legend:
[1] = rabbits, cited from earlier work
[2] = rats with hapten-induced colitis; cited from earlier work
[3] = target: T1, PARP-1 enzyme (Homo sapiens, UniProt P09874); assay: In vitro Scintillation Proximity Assay (SPA) for PARP-1 inhibitory activity; format: biochemical; settings: [3H]-NAD+ as ADP-ribosyl donor, biotinylated histones, nicked DNA; read-out: In vitro SPA pIC50 (converted)
T1 construct: made in house
Experimental: Pharmacological Example In Vitro Scintillation Proximity Assay (SPA) for PARP-1 Inhibitory Activity
Compounds of the present invention were tested in an in vitro assay based on SPA technology (proprietary to Amersham Phannacia Biotech).
In principle, the assay relies upon the well established SPA technology for the detection of poly(ADP-ribosyl)ation of biotinylated target proteins, i.e histones. This ribosylation is induced using nicked DNA activated PARP-1 enzyme and [^3H]-nicotinamide adenine dinucleotide ([^3H]-NAD^+) as ADP-ribosyl donor.
As inducer of PARP-1 enzyme activity, nicked DNA was prepared. For this, 25 mg of DNA (supplier: Sigma) was dissolved in 25 ml DNAse buffer (10 mM Tris-HCI, pH 7.4; 0.5 mg/ml Bovine Serum Albumine (BSA); 5 MM MgCl2.6H2O and 1 mM KCl) to which 50 μl DNAse solution (1 mg/ml in 0.15 M NaCl) was added. After an incubation of 90 min. at 37° C., the reaction was terminated by adding 1.45 g NaCl, followed by a further incubation at 58° C. for 15 min. The reaction mixture was cooled on ice and dialysed at 4° C. for respectively 1.5 and 2 hours against 1.51 of 0.2 M KCl, and twice against 1.51 of 0.01 M KCl for 1.5 and 2 h respectively. The mixture was aliquoted and stored at −20° C. Histones (1 mg/ml, type II-A, supplier: Sigma) were biotinylated using the biotinylation kit of Amersham and stored aliquoted at −20° C. A stock solution of 100 mg/ml SPA poly(vinyl toluene) (PVT) beads (supplier: Amersham) was made in PBS. A stock solution of [^3H]-NAD^+ was made by adding 120 μl of [^3H]-NAD^+ (0.1 mCi/ml, supplier: NEN) to 6 ml incubation buffer (50 mM Tris/HCl, pH 8; 0.2 mM DTT; 4 mM MgCl2). A solution of 4 mM NAD^+ (supplier: Roche) was made in incubation buffer (from a 100 mM stock solution in water stored at −20° C.). The PARP-1 enzyme was produced using art known techniques, i.e. cloning and expression of the protein starting from human liver cDNA. Information concerning the used protein sequence of the PARP-1 enzyme including literature references can be found in the Swiss-Prot database under primary accession number P09874. Biotinylated histones and PVT-SPA beads were mixed and pre-incubated for 30 min. at room temperature. PARP-1 enzyme (concentration was lot dependent) was mixed with the nicked DNA and the mixture was pre-incubated for 30 min. at 4° C. Equal parts of this histones/PVT-SPA beads solution and PARP-1 enzyme/DNA solution were mixed and 75 μl of this mixture together with 1 μl of compound in DMSO and 25 μl of [^3H]-NAD^+ was added per well into a 96-well microtiterplate. The final concentrations in the incubation mixture were 2 μg/ml for the biotinylated histones, 2 mg/ml for the PVT-SPA beads, 2 μg/ml for the nicked DNA and between 5-10 μg/ml for the PARP-1 enzyme. After incubation of the mixture for 15 min. at room temperature, the reaction was terminated by adding 100 μl of 4 mM NAD^+ in incubation buffer (final concentration 2 mM) and plates were mixed.
The beads were allowed to sediment for at least 15 min. and plates transferred to a TopCountNXTT™ (Packard) for scintillation counting, values were expressed as counts per minute (cpm). For each experiment, controls (containing PARP-1 enzyme and DMSO without compound), a blank incubation (containing DMSO but no PARP-1 enzyme or compound) and samples (containing PARP-1 enzyme and compound dissolved in DMSO) were run in parallel. All compounds tested were dissolved and eventually further diluted in DMSO. […] The control sample represented maximal PARP-1 enzyme activity. For each sample, the amount of cpm was expressed as a percentage of the mean cpm value of the controls. When appropriate, IC50-values (concentration of the drug, needed to reduce the PARP-1 enzyme activity to 50% of the control) were computed using linear interpolation between the experimental points just above and below the 50% level. Herein the effects of test compounds are expressed as pIC50(the negative log value of the IC50-value). […]

[4] = target: T1, PARP-1 enzyme; assay: In vitro filtration assay for PARP-1 inhibitory activity; format: biochemical; settings: [32P]-NAD as ADP-ribosyl donor, histones, nicked DNA; read-out: In vitro filtration assay pIC50 (converted)
Experimental: In Vitro Filtration Assay for PARP-1 Inhibitory Activity
Compounds of the present invention were tested in an in vitro filtration assay assessing PARP-1 activity (triggered in the presence of nicked DNA) by means of its histone poly (ADP-ribosyl)ation activity using [^32P]-NAD as ADP-ribosyl donor. The radioactive ribosylated histones were precipitated by trichIoroacetic acid (TCA) in 96-well filterplates and the incorporated [^32P] measured using a scintillation counter
A mixture of histones (stock solution: 5 mg/ml in H2O), NAD^+ (stock solution: 100 mM in H2O), and [^32P]-NAD^+ in incubation buffer (50 mM Tris/HCl, pH 8; 0.2 mM DTT; 4 mM MgCl2) was made. A mixture of the PARP-1 enzyme (5-10 μg/ml) and nicked DNA was also made. The nicked DNA was prepared as described in the in vitro SPA for PARP-1 inhibitory activity. Seventy-five μl of the PARP-1 enzyme/DNA mixture together with 1 μl of compound in DMSO and 25 μl of histones-NAD^+/[^32P]-NAD^+ mixture was added per well of a 96-well filterplate (0.45 μm, supplier Millipore). The final concentrations in the incubation mixture were 2 μg/ml for the histones, 0.1 mM for the NAD^+, […] (0.5 μC) for the [^32P]-NAD^+ and 2 μg/ml for the nicked DNA. Plates were incubated for 15 min. at room temperature and the reaction was terminated by the addition of 10 μl ice cold 100% TCA followed by the addition of 10 μl ice-cold BSA solution (1% in H2O). The protein fraction was allowed to precipitate for 10 min. at 4° C. and plates were vacuum filtered. The plates were subsequently washed with, for each well, 1 ml of 10% ice cold TCA, 1 ml of 5% ice cold TCA and 1 ml of 5% TCA at room temperature. Finally 100 μl of scintillation solution (Microscint 40, Packard) was added to each well and the plates were transferred to a TopCountNXT™ (supplier: Packard) for scintillation counting and values were expressed as counts per minute (cpm). For each experiment, controls (containing PARP-1 enzyme and DMSO without compound), a blank incubation (containing DMSO but no PARP-1 enzyme or compound) and samples (containing PARP-1 enzyme and compound dissolved in DMSO) were run in parallel. All compounds tested were dissolved and eventually further diluted in DMSO. […] The control sample represented maximal PARP-1 enzyme activity. For each sample, the amount of cpm was expressed as a percentage of the mean cpm value of the controls. When appropriate, IC50-values (concentration of the drug, needed to reduce the PARP-1 enzyme activity to 50% of the control) were computed using linear interpolation between the experimental points just above and below the 50% level. Herein the effects of test compounds are expressed as pIC50 (the negative log value of the IC50-value). As a reference compound, 4-amino-1,8-naphthalimide was included to validate the filtration assay.

T1 sequence (P09874 whole entry): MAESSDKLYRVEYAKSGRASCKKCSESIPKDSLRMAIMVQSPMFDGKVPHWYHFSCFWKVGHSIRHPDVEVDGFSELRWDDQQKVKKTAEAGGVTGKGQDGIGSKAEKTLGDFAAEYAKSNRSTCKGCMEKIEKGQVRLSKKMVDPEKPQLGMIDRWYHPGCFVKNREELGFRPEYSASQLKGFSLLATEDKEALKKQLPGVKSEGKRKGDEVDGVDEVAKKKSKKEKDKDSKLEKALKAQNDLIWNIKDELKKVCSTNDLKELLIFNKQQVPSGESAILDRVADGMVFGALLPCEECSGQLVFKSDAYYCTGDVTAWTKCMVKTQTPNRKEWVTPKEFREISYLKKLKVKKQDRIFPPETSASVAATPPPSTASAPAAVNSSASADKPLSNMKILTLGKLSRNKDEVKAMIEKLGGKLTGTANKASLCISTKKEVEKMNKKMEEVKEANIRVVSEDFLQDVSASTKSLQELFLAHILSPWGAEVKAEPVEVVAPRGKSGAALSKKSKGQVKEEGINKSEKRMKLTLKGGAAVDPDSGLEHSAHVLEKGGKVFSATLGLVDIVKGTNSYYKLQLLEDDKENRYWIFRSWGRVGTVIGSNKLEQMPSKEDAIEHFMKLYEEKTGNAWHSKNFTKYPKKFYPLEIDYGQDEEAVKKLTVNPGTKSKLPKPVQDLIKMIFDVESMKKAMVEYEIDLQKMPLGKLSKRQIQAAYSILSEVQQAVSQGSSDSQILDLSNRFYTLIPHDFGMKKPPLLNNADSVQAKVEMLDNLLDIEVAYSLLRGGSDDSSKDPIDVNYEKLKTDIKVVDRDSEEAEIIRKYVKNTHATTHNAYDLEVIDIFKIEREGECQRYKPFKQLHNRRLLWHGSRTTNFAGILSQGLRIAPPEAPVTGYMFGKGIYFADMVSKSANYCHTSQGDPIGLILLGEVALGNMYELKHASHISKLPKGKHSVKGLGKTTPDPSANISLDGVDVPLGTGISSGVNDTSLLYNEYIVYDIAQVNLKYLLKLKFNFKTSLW

| SMILES | IC50 [3] | IC50 [4] | other results |
| --- | --- | --- | --- |
| Oc1cccc2c(O)nccc12 [1,5-dihydroxyisoquinoline] |  |  | reduction in infarct size ([1]; single injection 1 mg/kg): 38-48% |
| NC(=O)c1cccc(N)c1 [3-amino-benzamide] |  |  | effect on inflammatory response, morphology and energetic status of the distal colon [2]: reduced the inflammatory response and restored the morphology and the energetic status of the distal colon; reduction in infarct size in the heart ([1]; single injection 10 mg/kg, one minute before occlusion or one minute before reperfusion): 32-42% |
| CCc1nc2cc(C(NC=O)C(C)C)ccc2[nH]c1=O (stereo not shown) [Compound 1] | 221 nM |  | melting point: 204 °C |
| Cc1cc2cc(C(C(C)C)n3ccnc3)ccc2[nH]c1=O (stereo not shown) [Compound 2] | 522 nM | 5.35 µM | melting point: 211.4 °C |
| CCc1cc2cc(C(=O)CN(C)C)ccc2[nH]c1=O [Compound 3] | 259 nM | 2.59 µM | melting point: 180 °C |
| Cc1cc2cc(C(CCN(C)C)c3ccco3)ccc2[nH]c1=O (stereo not shown) [Compound 4] | 1040 nM | 7.57 µM |  |
| CCc1cc2cc(C(O)C(CC)CC)ccc2[nH]c1=O (stereo not shown) [Compound 5] | 156 nM | 0.638 µM |  |
| Cc1cc2cc(C(CCc3ccccc3)NC=O)ccc2[nH]c1=O (stereo not shown) [Compound 6] | 769 nM | 10 µM | melting point: 221.3 °C |
| CCc1cc2cc(C(O)CN(C)C)ccc2[nH]c1=O (stereo not shown) [Compound 7] | 212 nM | 0.773 µM | melting point: 131 °C |
| CCOC(=O)Cc1ccc2[nH]c(=O)c(CC)nc2c1 [Compound 8] | 975 nM |  |  |
| CCc1nc2cc(C(=O)C(C)C)ccc2[nH]c1=O [Compound 9] | 743 nM |  |  |
| CCc1nc2cc(C(NCCN3CCC(C(=O)c4ccc(F)cc4)CC3)C(C)C)ccc2[nH]c1=O (stereo not shown) [Compound 10] | 740 nM |  |  |
| CCc1cc2cc(CCNCCCN3CCCCC3)ccc2[nH]c1=O [Compound 11] | 327 nM |  |  |
| CCc1cc2cc(CCNCCCN(C)Cc3ccccc3)ccc2[nH]c1=O [Compound 12] | 687 nM |  |  |
| CCc1nc2cc(C(NCCCN3CCCCC3)C(C)C)ccc2[nH]c1=O (stereo not shown) [Compound 13] | 368 nM |  |  |
| CCc1nc2cc(C(NCCCN(C)Cc3ccccc3)C(C)C)ccc2[nH]c1=O (stereo not shown) [Compound 14] | 499 nM |  |  |
| Cc1cc2cc(C(NCCCN3CCCCC3)C(C)C)ccc2[nH]c1=O (stereo not shown) [Compound 15] | 1260 nM | 3.62 µM |  |
| Cc1cc2cc(C(O)(CCN(C)C)c3ccccn3)ccc2[nH]c1=O (stereo not shown) [Compound 16] | 470 nM | 2.16 µM |  |
| CCc1cc2cc(C(O)C3CC=CCC3)ccc2[nH]c1=O (stereo not shown) [Compound 17] | 198 nM | 1.47 µM |  |
| Cc1cc2cc(C(C)NC=O)ccc2[nH]c1=O (stereo not shown) [Compound 18] | 1020 nM | 6.37 µM |  |
| CCc1nc2cc(C(O)C(C)C)ccc2[nH]c1=O (stereo not shown) [Compound 19] | 746 nM |  |  |
| CCc1nc2cc(C(C(C)C)n3cncn3)ccc2[nH]c1=O (stereo not shown) [Compound 20, 3-ethyl-6-[2-methyl-1-(1H-1,2,4-triazol-1-yl)propyl]-2(1H)-quinoxalinone] | 438 nM | 2.28 µM |  |
| CCc1nc2cc(C(C(C)C)n3ccnc3)ccc2[nH]c1=O (stereo not shown) [Compound 21, 3-ethyl-6-[1-(1H-imidazol-1-yl)-2-methylpropyl]-2(1H)-quinoxalinone] | 227 nM | 1.1 µM |  |
| CC(C)C(c1ccc2[nH]c(=O)c(-c3cccs3)nc2c1)n1cncn1 (stereo not shown) [Compound 22, 6-[2-methyl-1-(1H-1,2,4-triazol-1-yl)propyl]-3-(2-thienyl)-2(1H)-quinoxalinone] | 838 nM | 4.33 µM |  |
| CC(C)C(c1ccc2[nH]c(=O)c(-c3ccsc3)nc2c1)n1cncn1 (stereo not shown) [Compound 23, 6-[2-methyl-1-(1H-1,2,4-triazol-1-yl)propyl]-3-(thienyl)-2(1H)-quinoxalinone] | 1430 nM | 7.13 µM |  |
| CC(C)C(c1ccc2[nH]c(=O)c(-c3ccsc3)nc2c1)n1ccnc1 (stereo not shown) [Compound 24, 6-[1-(1H-imidazol-1-yl)-2-methylpropyl]-3-(3-thienyl)-2(1H)-quinoxalinone] | 561 nM | 4.86 µM |  |
| CCCCC(c1ccc2[nH]c(=O)c(C)nc2c1)n1ccnc1 (stereo not shown) [Compound 25, 6-[1-(1H-imidazol-1-yl)pentyl]-3-methyl-2(1H)-quinoxalinone] | 1000 nM | 4.63 µM |  |
